The test system of data set [1] is Human immunodeficiency virus 1. In words: Antiviral activity against HIV1 3B harboring reverse transcriptase Y181C mutant infected in human MT2 cells assessed as protection against virus-induced effect by MTT assay. It is filed as functional, organism-based.
The test system of data set [2] is Human immunodeficiency virus 1. As to the kind of experiment: Antiviral activity against HIV1 3B harboring reverse transcriptase K103N/Y181C double mutant infected in human MT2 cells assessed as protection against virus-induced effect by MTT assay. The class given is functional, organism-based.
Data set [3] can be described thus: Aqueous solubility of the compound in Britton-Robinson buffer at pH 6.5 after 48 hrs by shake-flask method. The class given is physicochemical.
In data set [4] the test system is Human immunodeficiency virus 1. As to the kind of experiment: Antiviral activity against wild type HIV1 3B infected in human MT4 cells assessed as protection against virus-induced effect. To be noted: Human immunodeficiency virus 1, 3B. The class given is functional, organism-based.
Data set [5] has as its system Human immunodeficiency virus 1. As to the kind of experiment: Antiviral activity against HIV1 3B harboring reverse transcriptase Y181C mutant infected in human MT4 cells assessed as protection against virus-induced effect. It is filed as functional, organism-based. The following applies: Human immunodeficiency virus 1, 3B.
The subject of another data set is MT2. As to the kind of experiment: (§1) Cytotoxicity against human MT2 cells assessed as growth inhibition. To be noted: mt2. It is filed as cell-based.
A short description of data set [6]: Aqueous solubility of the compound. It is filed as physicochemical. The following applies: aqueous medium.
The nature of data set [7]: Solubility of the compound in water by HPLC analysis. It is filed as physicochemical.
The nature of data set [8]: as §1. The class given is cell-based. The following applies: MT2 cells.
A short description of data set [9]: Equilibrium solubility of the compound by shake-flask method. It is filed as physicochemical.
Data set [10] in a line: Intrinsic solubility of the compound in water at 25 degC after 7 days by HPLC analysis. The class given is physicochemical. To be noted: buffer, 168 h.
[11] abbreviates: Human immunodeficiency virus 1, 3B, MT2, read-out: EC50.

In brackets after ≈: the same amount, converted by molar mass. Where only a bound is given, the exact number is not on record here.

A word on the EC50: it is the midpoint of the concentration-response curve. For orientation: thermodynamic solubility means the concentration in solution at equilibrium with solid. The term CC50 denotes the concentration at which the toxic effect on the cells reaches its halfway point. For orientation: solubility means the concentration that dissolves in the medium under given conditions. A high value points to a readily soluble substance.

For `Cc1cc(C)c(Nc2cc(OCCN3CCOCC3)nc(Nc3ccc(C#N)cc3)n2)c(C)c1`, the EC50 was determined as 700 nM in [1] (setting [11]) and 60 nM in [2] (setting [11]). The compound further displayed a solubility (thermodynamic) at 48 h in [3] of 12.5 µg/mL (≈ 27.3 µM).
Regarding `Cc1cc(C)c(Nc2cc(OCCCN3CCOCC3)nc(Nc3ccc(C#N)cc3)n2)c(C)c1`, the EC50 in data set [1] (setting [11]) worked out at 480 nM; in data set [2] (setting [11]), 38 nM. In data set [3], this compound displayed a thermodynamic solubility at 48 h of 27.3 µg/mL (≈ 57.8 µM).
The corresponding values for `Cc1cc(C)c(Nc2nc(Nc3ccc(C#N)cc3)nc(OCCN3CCOCC3)n2)c(C)c1` are 700 nM, 110 nM and 4.42 µg/mL (≈ 9.62 µM).
As for `Cc1cc(C)c(Nc2nc(Nc3ccc(C#N)cc3)nc(OCCCN3CCOCC3)n2)c(C)c1`, the EC50 came out at 310 nM in data set [1] (setting [11]) and 31 nM in data set [2] (setting [11]). Besides, the solubility (thermodynamic) at 48 h in data set [3] stood at 15.3 µg/mL (≈ 32.3 µM).
The corresponding values for `Cc1cc(C#N)cc(C)c1Nc1nc(Nc2ccc(C#N)cc2)nc(OCCCN2CCOCC2)n1` are 1000 nM, 42 nM and 13.3 µg/mL (≈ 27.4 µM).
As for `Cc1cc(/C=C/C#N)cc(C)c1Nc1nc(Nc2ccc(C#N)cc2)nc(OCCCN2CCOCC2)n1`, the solubility (thermodynamic) at 48 h in data set [3] turned out to be 14.2 µg/mL (≈ 27.8 µM).
Turning to `Cc1cc(F)c(Nc2nc(Nc3ccc(C#N)cc3)nc(OCCCN3CCOCC3)n2)c(F)c1`, the EC50 is 350 nM in data set [1] (setting [11]) and 70 nM in data set [2] (setting [11]). The compound also registered a thermodynamic solubility at 48 h in data set [3] of 22.9 µg/mL (≈ 47.6 µM).
On to `CCc1cc(F)c(Nc2nc(Nc3ccc(C#N)cc3)nc(OCCCN3CCOCC3)n2)c(F)c1`, for which the EC50 in [1] (setting [11]) is 500 nM; in data set [2] (setting [11]) it was 50 nM.
The corresponding values for `CC(C)c1cc(F)c(Nc2nc(Nc3ccc(C#N)cc3)nc(OCCCN3CCOCC3)n2)c(F)c1` are 270 nM and 30 nM.
For the compound `N#Cc1ccc(Nc2nc(Nc3c(F)cc(C4CC4)cc3F)nc(OCCCN3CCOCC3)n2)cc1`, the EC50 amounted to 1100 nM in data set [1] (setting [11]) and 150 nM in data set [2] (setting [11]).
The corresponding values for `Cc1cc(C)c(Nc2nc(Nc3ccc(C#N)cc3)nc(OCCC3CCNCC3)n2)c(C)c1` are 1000 nM and 100 nM.
The corresponding values for `Cc1cc(C)c(Nc2nc(Nc3ccc(C#N)cc3)nc(OCCCC3CCNCC3)n2)c(C)c1` are 1200 nM and 140 nM.
For `Cc1cc(C)c(Nc2ncnc(Nc3ccc(C#N)cc3)n2)c(C)c1`, the thermodynamic solubility at 48 h in [3] amounted to 0.2 µg/mL (≈ 0.605 µM).
Take `Cc1cc(C)c(Nc2ccnc(Nc3ccc(C#N)cc3)n2)c(C)c1` [DAPIVIRINE]: the EC50 amounted to 39 nM in [1] (setting [11]), 1.2 nM in data set [4], 39 nM in data set [2] (setting [11]) and 7 nM in data set [5]. In the data set with MT2, the CC50 turned out to be 2000 nM.
In turn, `Cc1cc(C#N)cc(C)c1Oc1nc(Nc2ccc(C#N)cc2)nc(N)c1Br` [ETRAVIRINE] registered a solubility in [6] of less than 1 µg/mL.
In data set [7], `Cc1ccnc2c1NC(=O)c1cccnc1N2C1CC1` [NEVIRAPINE] came in with a solubility of 167 µg/mL (≈ 627 µM). Also, the EC50 entry in [1] (mt2) and in data set [2] (mt2) was “Not Active” throughout. Also, the CC50 in data set [8] is more than 100000 nM.
Compound `CN1C(C(=O)Nc2ccccn2)=C(O)c2ccccc2S1(=O)=O` [PIROXICAM] yielded a solubility (thermodynamic) at 48 h in data set [3] of 7.2 µg/mL (≈ 21.7 µM). Besides, the solubility (thermodynamic) in data set [9] was 6.4 µg/mL (≈ 19.3 µM).
In turn, `CC(C)=CCOc1cc(NC(=S)c2ccoc2C)ccc1Cl` [UC 781] yielded an Intrinsic_solubility in [10] of less than 0.03 µg/mL.

Values taken from ChEMBL document CHEMBL2417542 (Bioorg Med Chem Lett, 2013).
